Experimental data from US20240082313A1, “PHARMACEUTICAL COMPOSITIONS AND THEIR METHODS OF USE” (The Trustees of Indiana University, priority 2021, published 2024).

Key:
[1] = system: EO771 mammary tumor cells; test: Wound-healing scratch assay; type: cell-based, mouse; details: inhibitor applied with iTS CM
Method: Two-dimensional motility assay. A wound-healing scratch motility assay was performed to measure 2-dimensional cell motility. Cells were seeded in 12-well plates, after cell attachment, a plastic pipette tip was used to scratch a gap on the cell layer. Images of the cell-free scratch zone were obtained via an inverted microscope at 0 h, and the areas newly occupied with cells were determined 48 h after scratching. The areas were quantified with Image J (National Institutes of Health, Maryland, USA).
Scratch assay. A wound-healing scratch assay was conducted to evaluate 2-dimensional migratory behavior. Approximately 4×10^5 cells were seeded in 12-well plates. After cell attachment, a plastic pipette tip was used to scratch a gap on the cell layer. After the removal of the floating cells, CM was added. Images of the cell-free scratch zone were collected at 0 h, and the areas newly occupied with cells were determined 24-48 h after scratching. The areas were quantified with IMAGE J™ (National Institutes of Health, Bethesda, MD, USA).

[2] = system: EO771 mammary tumor cells; test: TRANSWELL invasion assay; type: cell-based, mouse; details: inhibitor applied with iTS CM
Method: Invasion assay. The invasion capacity of cancer cells was determined using a 24-well plate, TRANSWELL® chambers (Thermo Fisher Scientific, Waltham, MA, USA) with […] pore size and MATRIGEL™. Cell invasion was measured in TRANSWELL® chambers with a coating including MATRIGEL™ (100 μg/ml). The cells in 200 μL serum-free DMEM were placed on the upper chamber and 800 μL iTS CM was added in the lower chamber. After 24 h, the cells that had invaded the lower side of the membrane were stained with Crystal Violet. At least five randomly chosen images were taken under a microscope, and the average number of stained cells that represented the relative invasion was determined.

[3] = system: EO771 mammary tumor cells; test: Tumor selectivity from MTT-based viability (tumor vs non-tumor cells); type: cell-based, mouse; details: tumor cells EO
From the text: (§1) Variations in tumor selectivity among the predicted tumor-suppressing proteins. Tumor-suppressing proteins may inhibit the progression of tumor cells but not inhibit the progression of non-tumor cells. Using the MTT-based viability, tumor selectivity was defined as a ratio of (reduction in MTT-based viability of tumor cells) to (reduction in MTT-based viability of non-tumor cells). The tumor selectivity may be above one to remove tumor cells and a larger value may signify a reduction in the inhibition of the growth of non-tumor cells. The tumor selectivity was determined using three tumor cells (4T1.2 mouse mammary tumor cells, EO771 mammary tumor cells, and MDA-MB-231 breast cancer cells) and three non-tumor cells (adipose cells, MLO-A5 osteocytes, and murine MSCs). […] Table 2 provides the tumor selectivity of 4T1.2 Oct4 CM, 4T1.2 c-Myc CM, and 10 tumor-suppressing protein candidates.

[4] = system: MDA-MB-231 breast cancer cells; test: as above; type: cell-based, human
From the text: as §1

[5] = system: 4T1.2 mouse mammary tumor cells; test: as above; type: cell-based
From the text: as §1

EO771 cells = test: Western blot analysis; type: cell-based, mouse
Method: Western blot analysis. Cultured cells were lysed in a radio-immunoprecipitation assay buffer with protease inhibitors (Santa Cruz Biotechnology, Santa Cruz, CA, USA) and phosphatase inhibitors (Calbiochem, Billerica, MA, USA). After cell lysis, proteins were fractionated by 10-15% SDS gels and electro-transferred to polyvinylidene difluoride (“PVDF”) transfer membranes (Millipore, Billerica, MA, USA). After blocking 1 h with a blocking buffer (Bio-Rad), the membrane was incubated overnight with primary antibodies and then with secondary antibodies conjugated with horseradish peroxidase for 45 min (Cell Signaling, Danvers, MA, USA). Antibodies against β-catenin, cleaved-caspase 3, Runx2, Snail, Enolase-1 (Cell Signaling, Danvers, MA, USA), MMP9 (Santa Cruz, Dallas, TX, USA), TRAIL (Novus, Centennial, CO, USA), p53 (Invitrogen, Carlsbad, CA, USA), and β-actin as a control (Sigma, St. Louis, MO, USA), were employed. The level of proteins was determined using a SUPERSIGNAL™ west femto maximum sensitivity substrate (Thermo Scientific, Waltham, MA, USA), and a luminescent image analyzer (LAS-3000, Fuji Film, Tokyo, Japan) was used to quantify signal intensities.

In the case of `NCCOCCOCCNC(=O)Cc1ccc(Nc2nc(NCc3ccc(F)cc3)nc(NCC3CCCCC3)n2)cc1` [AP-III-a4, reference compound], the “inhibitory effect of β-catenin-overexpressing iTS CM on migration” value [1] is reported as “suppressed the inhibitory effect” and the “inhibitory effect of β-catenin-overexpressing iTS CM on invasion” value [2] is reported as “suppressed the inhibitory effect”.

For “Flna: recombinant protein, tumor-suppressing protein candidate”, the Tumor selectivity ([3]; non-tumor cells A5) was 1.97, the Tumor selectivity ([3]; non-tumor cells Adipose) was 1.64 and the Tumor selectivity ([3]; non-tumor cells MSC) was 1.45. It also gave a Tumor selectivity ([4]; non-tumor cells A5) of 1.54, a Tumor selectivity ([4]; non-tumor cells Adipose) of 1.28 and a Tumor selectivity ([4]; non-tumor cells MSC) of 1.13. For the same molecule, the Tumor selectivity ([5]; non-tumor cells A5) was 1.43, the Tumor selectivity ([5]; non-tumor cells Adipose) was 1.19 and the Tumor selectivity ([5]; non-tumor cells MSC) was 1.05.

For “Myh9: recombinant protein, tumor-suppressing protein candidate”, the Tumor selectivity ([3]; non-tumor cells A5) was 0.32, the Tumor selectivity ([3]; non-tumor cells Adipose) was 0.64 and the Tumor selectivity ([3]; non-tumor cells MSC) was 0.93. The Tumor selectivity ([4]; non-tumor cells A5) was 0.23, the Tumor selectivity ([4]; non-tumor cells Adipose) was 0.46 and the Tumor selectivity ([4]; non-tumor cells MSC) was 0.66. For the same molecule, the Tumor selectivity ([5]; non-tumor cells A5) was 0.25, the Tumor selectivity ([5]; non-tumor cells Adipose) was 0.48 and the Tumor selectivity ([5]; non-tumor cells MSC) was 0.70.

“Plec: recombinant protein, tumor-suppressing protein candidate” was tested, and the Tumor selectivity ([3]; non-tumor cells A5) was 1.95, the Tumor selectivity ([3]; non-tumor cells Adipose) was 1.86 and the Tumor selectivity ([3]; non-tumor cells MSC) was 1.54. The Tumor selectivity ([4]; non-tumor cells A5) was 1.16, the Tumor selectivity ([4]; non-tumor cells Adipose) was 1.10 and the Tumor selectivity ([4]; non-tumor cells MSC) was 0.91. For the same molecule, the Tumor selectivity ([5]; non-tumor cells A5) was 1.33, the Tumor selectivity ([5]; non-tumor cells Adipose) was 1.28 and the Tumor selectivity ([5]; non-tumor cells MSC) was 1.06.

B1: Eef1a1: recombinant protein, tumor-suppressing protein candidate (protein, UniProt P10126 2-462, looked up)
Elongation factor 1-alpha 1: GKEKTHINIVVIGHVDSGKSTTTGHLIYKCGGIDKRTIEKFEKEAAEMGKGSFKYAWVLDKLKAERERGITIDISLWKFETSKYYVTIIDAPGHRDFIKNMITGTSQADCAVLIVAAGVGEFEAGISKNGQTREHALLAYTLGVKQLIVGVNKMDSTEPPYSQKRYEEIVKEVSTYIKKIGYNPDTVAFVPISGWNGDNMLEPSANMPWFKGWKVTRKDGSASGTTLLEALDCILPPTRPTDKPLRLPLQDVYKIGGIGTVPVGRVETGVLKPGMVVTFAPVNVTTEVKSVEMHHEALSEALPGDNVGFNVKNVSVKDVRRGNVAGDSKNDPPMEAAGFTAQVIILNHPGQISAGYAPVLDCHTAHIACKFAELKEKIDRRSGKKLEDGPKFLKSGDAAIVDMVPGKPMCVESFSDYPPLGRFAVRDMRQTVAVGVIKAVDKKAAGAGKVTKSAQKAQKAK
Molecule B1 has a Tumor selectivity ([3]; non-tumor cells A5) of 0.96, a Tumor selectivity ([3]; non-tumor cells Adipose) of 0.58 and a Tumor selectivity ([3]; non-tumor cells MSC) of 1.05. The Tumor selectivity ([4]; non-tumor cells A5) was 0.86, the Tumor selectivity ([4]; non-tumor cells Adipose) was 0.52 and the Tumor selectivity ([4]; non-tumor cells MSC) was 0.94. The Tumor selectivity ([5]; non-tumor cells A5) was 1.23, the Tumor selectivity ([5]; non-tumor cells Adipose) was 0.74 and the Tumor selectivity ([5]; non-tumor cells MSC) was 1.34.

B2: Aldoa: recombinant protein, tumor-suppressing protein candidate (protein, UniProt P05064 2-364, looked up)
Fructose-bisphosphate …: PHPYPALTPEQKKELSDIAHRIVAPGKGILAADESTGSIAKRLQSIGTENTEENRRFYRQLLLTADDRVNPCIGGVILFHETLYQKADDGRPFPQVIKSKGGVVGIKVDKGVVPLAGTNGETTTQGLDGLSERCAQYKKDGADFAKWRCVLKIGEHTPSALAIMENANVLARYASICQQNGIVPIVEPEILPDGDHDLKRCQYVTEKVLAAVYKALSDHHVYLEGTLLKPNMVTPGHACTQKFSNEEIAMATVTALRRTVPPAVTGVTFLSGGQSEEEASINLNAINKCPLLKPWALTFSYGRALQASALKAWGGKKENLKAAQEEYIKRALANSLACQGKYTPSGQSGAAASESLFISNHAY
B2 gave a Tumor selectivity ([3]; non-tumor cells A5) of 1.87, a Tumor selectivity ([3]; non-tumor cells Adipose) of 2.10 and a Tumor selectivity ([3]; non-tumor cells MSC) of 0.96. For the same molecule, the Tumor selectivity ([4]; non-tumor cells A5) was 1.75, the Tumor selectivity ([4]; non-tumor cells Adipose) was 1.97 and the Tumor selectivity ([4]; non-tumor cells MSC) was 0.90. The Tumor selectivity ([5]; non-tumor cells A5) was 2.72, the Tumor selectivity ([5]; non-tumor cells Adipose) was 3.06 and the Tumor selectivity ([5]; non-tumor cells MSC) was 1.39.

B3: TRAIL: an apoptosis-inducing factor applied to EO771 tumor cells (protein, UniProt P50592 1-291, looked up)
Tumor necrosis factor ligand …: MPSSGALKDLSFSQHFRMMVICIVLLQVLLQAVSVAVTYMYFTNEMKQLQDNYSKIGLACFSKTDEDFWDSTDGEILNRPCLQVKRQLYQLIEEVTLRTFQDTISTVPEKQLSTPPLPRGGRPQKVAAHITGITRRSNSALIPISKDGKTLGQKIESWESSRKGHSFLNHVLFRNGELVIEQEGLYYIYSQTYFRFQEAEDASKMVSKDKVRTKQLVQYIYKYTSYPDPIVLMKSARNSCWSRDAEYGLYSIYQGGLFELKKNDRIFVSVTNEHLMDLDQEASFFGAFLIN
With B3 the “level of cleaved caspase 3” value (EO771 cells) was “increased”.
